Data: patent US20250081967A1, “PESTICIDALLY ACTIVE HETEROCYCLIC DERIVATIVES WITH SULFOXIMINE CONTAINING SUBSTITUENTS” (SYNGENTA CROP PROTECTION AG, priority 2021, published 2025)

What was measured:
Assay type in all cases: in vivo
Euschistus heros = experiment: Activity against Euschistus heros (neotropical brown stink bug), soybean leaf; conditions: 120 h, application rate 200 ppm, N-2 nymphs, 5 days after infestation, read-out: effect in at least one of the two categories (mortality or growth inhibition)
Description: Example B7: Activity Against Euschistus heros (Neotropical Brown Stink Bug)
Soybean leaf on agar in 24-well microtiter plates were sprayed with aqueous test solutions prepared from 10′000 ppm DMSO stock solutions. After drying the leaf were infested with N-2 nymphs. The samples were assessed for mortality and growth inhibition in comparison to untreated samples 5 days after infestation.

[1] = test system: Frankliniella occidentalis; experiment: Activity against Frankliniella occidentalis (western flower thrips), sunflower leaf discs; conditions: foliar, 168 h, application rate 200 ppm, mixed ages, 7 days after infestation
Description: Example B8: Activity Against Frankliniella occidentalis (Western Flower Thrips)
Sunflower leaf discs were placed on agar in 24-well microtiter plates and sprayed with aqueous test solutions prepared from […] stock solutions. After drying the leaf discs were infested with a Frankliniella population of mixed ages. The samples were assessed for mortality 7 days after infestation.

Diabrotica balteata = experiment: Activity against Diabrotica balteata (corn root worm), maize sprouts; conditions: 96 h, application rate 200 ppm, L2 larvae, 4 days after infestation, read-out: effect in at least one of the two categories (mortality or growth inhibition)
Description: Example B3: Activity Against Diabrotica Balteata (Corn Root Worm)
Maize sprouts placed onto an agar layer in 24-well microtiter plates were treated with aqueous test solutions prepared from 10′000 ppm DMSO stock solutions by spraying. After drying, the plates were infested with L2 larvae (6 to 10 per well). The samples were assessed for mortality and growth inhibition in comparison to untreated samples 4 days after infestation.

Myzus persicae [2] = experiment: Activity against Myzus persicae (green peach aphid), systemic activity, pea seedlings; conditions: Myzus persicae
Description: Example B5: Activity Against Myzus persicae (Green Peach Aphid) Systemic Activity
Roots of pea seedlings infested with an aphid population of mixed ages were placed directly in the aqueous test solutions prepared from 10′000 DMSO stock solutions. The samples were assessed for mortality 6 days after placing seedlings in test solutions.

Spodoptera littoralis = experiment: Activity against Spodoptera littoralis (Egyptian cotton leaf worm), cotton leaf discs; conditions: foliar, 72 h, application rate 200 ppm, L1 larvae, 3 days after infestation, read-out: control (mortality, anti-feeding effect or growth inhibition)
Outline: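 Cotton leaf discs on agar sprayed with aqueous test solutions made from 10′000 ppm DMSO stocks, dried, then infested with five L1 larvae. Mortality, anti-feeding and growth inhibition scored versus untreated samples 3 days after infestation; control given when any category exceeds untreated.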

Myzus persicae [3] = experiment: Activity against Myzus persicae (green peach aphid), feeding/contact activity, sunflower leaf discs; conditions: Myzus persicae, foliar, 144 h, application rate 200 ppm; feeding/contact; 6 days after infestation
Description: Example B4: Activity Against Myzus persicae (Green Peach Aphid) Feeding/Contact Activity
Sunflower leaf discs were placed on agar in a 24-well microtiter plate and sprayed with aqueous test solutions prepared from 10′000 ppm DMSO stock solutions. After drying, the leaf discs were infested with an aphid population of mixed ages. The samples were assessed for mortality 6 days after infestation.

Plutella xylostella [4] = experiment: Activity against Plutella xylostella (diamond back moth), artificial diet, L2 larvae; conditions: 120 h, application rate 200 ppm, 5 days after infestation, read-out: effect in at least one of the two categories (mortality or growth inhibition)
Description: Example B2: Activity Against Plutella xylostella (Diamond Back Moth)
(§1) 24-well microtiter plates with artificial diet were treated with aqueous test solutions prepared from 10′000 ppm DMSO stock solutions by pipetting. After drying, the plates were infested with L2 larvae (10 to 15 per well). The samples were assessed for mortality and growth inhibition in comparison to untreated samples 5 days after infestation.

Bemisia tabaci = experiment: Activity against Bemisia tabaci (cotton white fly), cotton leaf discs; conditions: for mortality at 200 ppm: foliar, 144 h, application rate 200 ppm, adult white flies, 6 days after incubation
Description: Example B6: Activity Against Bemisia tabaci (Cotton White Fly)
Cotton leaf discs were placed on agar in 24-well microtiter plates and sprayed with aqueous test solutions prepared from 10′000 ppm DMSO stock solutions. After drying the leaf discs were infested with adult white flies. The samples were checked for mortality 6 days after incubation.

Chilo suppressalis = experiment: Activity against Chilo suppressalis (striped rice stemborer), artificial diet; conditions: 144 h, application rate 200 ppm, L2 larvae, 6 days after infestation
Description: Example B11: Activity Against Chilo suppressalis (Striped Rice Stemborer)
as §1, with “(6-8” for “(10 to 15”, “mortality, anti-feeding effect,” for “mortality”, “6” for “5”, “infestation. Control of Chilo suppressalis by a test sample is given when at least one of the categories mortality, anti-feedant effect, and growth inhibition is higher than the untreated sample.” for “infestation.”

Plutella xylostella [5] = experiment: Activity against Plutella xylostella (diamond back moth), artificial diet, eggs; conditions: 192 h, application rate 200 ppm, 8 days after infestation, read-out: effect in at least one of the two categories (mortality or growth inhibition)
Outline: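 Artificial diet in wells treated with aqueous dilutions of 10′000 ppm DMSO stocks, dried, then infested with Plutella eggs. Mortality and growth inhibition scored against untreated samples 8 days after infestation.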

Tetranychus urticae = experiment: Activity against Tetranychus urticae (two-spotted spider mite), bean leaf discs; conditions: foliar, 192 h, application rate 200 ppm, mixed population (mobile stages), 8 days after infestation
Description: Example B10: Activity Against Tetranychus urticae (Two-Spotted Spider Mite)
Bean leaf discs on agar in 24-well microtiter plates were sprayed with aqueous test solutions prepared from 10′000 ppm DMSO stock solutions. After drying the leaf discs were infested with a mite population of mixed ages. The samples were assessed for mortality on mixed population (mobile stages) 8 days after infestation.

[6] = 144 h, test rate 24 ppm, systemic, 6 days after placing seedlings in test solutions

Row | SMILES | percent effect (mortality or growth inhibition) at 200 ppm (Euschistus heros) [%] | mortality at 200 ppm [1] [%] | percent effect (mortality or growth inhibition) at 200 ppm (Diabrotica balteata) [%] | mortality at 24 ppm (Myzus persicae [2]; [6]) [%] | percent control (mortality, anti-feedant effect or growth inhibition) at 200 ppm (Spodoptera littoralis) [%] | mortality at 200 ppm (Myzus persicae [3]) [%] | percent effect (mortality or growth inhibition) at 200 ppm (Plutella xylostella [4]) [%] | mortality at 200 ppm (Bemisia tabaci) [%] | percent control (mortality, anti-feedant effect or growth inhibition) at 200 ppm (Chilo suppressalis) [%] | percent effect (mortality or growth inhibition) at 200 ppm (Plutella xylostella [5]) [%] | Mortality (%) (Bemisia tabaci; concentration 50 ppm) | mortality at 24 ppm (Myzus persicae [2]; Myzus persicae (systemic), concentration 24 ppm) [%] | mortality at 200 ppm (Tetranychus urticae) [%]
1 | CCS(=N)(=O)c1cc(OC(C)(C)C#N)cnc1-c1nc2cc(C(F)(F)F)n(C3CC3)c(=O)c2n1C (racemic) [Compound P1, 2-[[6-[5-cyclopropyl-3-methyl-4-oxo-6-(trifluoromethyl)imidazo[4,5-c]pyridin-2-yl]-5-(ethylsulfonimidoyl)-3-pyridyl]oxy]-2-methyl-propanenitrile] | ≥ 80 | ≥ 80 | ≥ 80 | ≥ 80 | ≥ 80 | ≥ 80 | ≥ 80 | ≥ 80 |  |  |  |  | 
2 | CCS(=N)(=O)c1cc(C2(C#N)CC2)cnc1-c1nc2cc(C(F)(F)F)ncc2n1C (racemic) [Compound P10, 1-[5-(ethylsulfonimidoyl)-6-[3-methyl-6-(trifluoromethyl)imidazo[4,5-c]pyridin-2-yl]-3-pyridyl]cyclopropanecarbonitrile] |  |  |  | ≥ 80 |  | ≥ 80 |  | ≥ 80 | ≥ 80 | ≥ 80 |  |  | 
3 | CCS(=N)(=O)c1cc(OC(C)(C)C#N)cnc1-c1nc2cc(C(F)(F)F)n(C3CC3)c(=O)c2n1C (single isomer, unassigned) [Compound P1-B, 2-[[6-[5-cyclopropyl-3-methyl-4-oxo-6-(trifluoromethyl)imidazo[4,5-c]pyridin-2-yl]-5-(ethylsulfonimidoyl)-3-pyridyl]oxy]-2-methyl-propanenitrile] |  | ≥ 80 |  |  |  |  |  |  |  | ≥ 80 |  |  | 
4 | CCS(=N)(=O)c1cc(OC(C)(C)C#N)cnc1-c1cn2cnc(SC(F)(F)F)cc2n1 (single isomer, unassigned) [Compound P7-B, 2-[[5-(ethylsulfonimidoyl)-6-[7-(trifluoromethylsulfanyl)imidazo[1,2-c]pyrimidin-2-yl]-3-pyridyl]oxy]-2-methyl-propanenitrile] |  | ≥ 80 |  |  |  |  |  |  |  | ≥ 80 | 80 |  | 
5 | CCS(=N)(=O)c1cc(OC(C)(C)C#N)cnc1-c1cn2cnc(C(F)(F)F)cc2n1 (single isomer, unassigned) [Compound P11-A, 2-[[5-(ethylsulfonimidoyl)-6-[7-(trifluoromethyl)imidazo[1,2-c]pyrimidin-2-yl]-3-pyridyl]oxy]-2-methyl-propanenitrile] |  | ≥ 80 | ≥ 80 | ≥ 80 |  | ≥ 80 |  |  |  | ≥ 80 |  | 100 | 
6 | CCn1c(C(F)(F)F)cc2nc(-c3ncc(OC(C)(C)C#N)cc3S(=N)(=O)CC)n(C)c2c1=O (single isomer, unassigned) [Compound P19-A, 2-[[6-[5-ethyl-3-methyl-4-oxo-6-(trifluoromethyl)imidazo[4,5-c]pyridin-2-yl]-5-(ethylsulfonimidoyl)-3-pyridyl]oxy]-2-methyl-propanenitrile] | ≥ 80 |  | ≥ 80 | ≥ 80 | ≥ 80 | ≥ 80 |  | ≥ 80 |  | ≥ 80 |  |  | ≥ 80
7 | CCn1c(C(F)(F)F)cc2nc(-c3ncc(OC(C)(C)C#N)cc3S(=N)(=O)CC)n(C)c2c1=O (single isomer, unassigned) [Compound P19-B, 2-[[6-[5-ethyl-3-methyl-4-oxo-6-(trifluoromethyl)imidazo[4,5-c]pyridin-2-yl]-5-(ethylsulfonimidoyl)-3-pyridyl]oxy]-2-methyl-propanenitrile] |  | ≥ 80 |  |  |  |  |  |  |  |  |  |  | 
